Laboratory results reported in PubChem BioAssay (NCI).
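Results reflect a 48-hour exposure of cells in 96-well plates to compound at five concentrations. At the TGI there is no net growth.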

Key:
Test in all cases: DTP human tumour cell line panel, 48 h
SF-268 CNS = system: SF-268 CNS
SK-MEL-2 melanoma = system: SK-MEL-2 melanoma
SK-MEL-5 melanoma = system: SK-MEL-5 melanoma
OVCAR-8 ovarian = system: OVCAR-8 ovarian
OVCAR-5 ovarian = system: OVCAR-5 ovarian
A549 NSCLC = system: A549 NSCLC
ACHN renal = system: ACHN renal
EKVX NSCLC = system: EKVX NSCLC
UACC-62 melanoma = system: UACC-62 melanoma
SK-OV-3 ovarian = system: SK-OV-3 ovarian
RXF-631 renal = system: RXF-631 renal
RPMI-8226 leukemia = system: RPMI-8226 leukemia
UACC-257 melanoma = system: UACC-257 melanoma
NCI-H460 lung = system: NCI-H460 lung
TK-10 renal = system: TK-10 renal
COLO 205 colon = system: COLO 205 colon
UO-31 renal = system: UO-31 renal
HCT-15 colon = system: HCT-15 colon
SNB-78 CNS = system: SNB-78 CNS
SNB-19 CNS = system: SNB-19 CNS
CCRF-CEM leukemia = system: CCRF-CEM leukemia
OVCAR-4 ovarian = system: OVCAR-4 ovarian
XF 498 CNS = system: XF 498 CNS
HT29 colon = system: HT29 colon
HOP-92 NSCLC = system: HOP-92 NSCLC
KM12 colon = system: KM12 colon
786-0 renal = system: 786-0 renal
SK-MEL-28 melanoma = system: SK-MEL-28 melanoma
SF-539 CNS = system: SF-539 CNS
KM20L2 colon = system: KM20L2 colon
MALME-3M melanoma = system: MALME-3M melanoma
HOP-62 NSCLC = system: HOP-62 NSCLC
NCI-H522 lung = system: NCI-H522 lung
HCT-116 colon = system: HCT-116 colon
DMS 273 small cell lung = system: DMS 273 small cell lung
OVCAR-3 ovarian = system: OVCAR-3 ovarian
SNB-75 CNS = system: SNB-75 CNS
SR leukemia = system: SR leukemia
M19-MEL melanoma = system: M19-MEL melanoma
M14 melanoma = system: M14 melanoma
SF-295 CNS = system: SF-295 CNS
DLD-1 colon = system: DLD-1 colon
HOP-18 NSCLC = system: HOP-18 NSCLC
SW-620 colon = system: SW-620 colon
RXF 393 renal = system: RXF 393 renal
NCI-H23 lung = system: NCI-H23 lung
SN12C renal = system: SN12C renal
LOX IMVI melanoma = system: LOX IMVI melanoma
NCI-H226 lung = system: NCI-H226 lung
U251 CNS = system: U251 CNS
CAKI-1 renal = system: CAKI-1 renal
K-562 leukemia = system: K-562 leukemia
HL-60(TB) leukemia = system: HL-60(TB) leukemia
LXFL 529 NSCLC = system: LXFL 529 NSCLC
IGROV1 ovarian = system: IGROV1 ovarian
A498 renal = system: A498 renal
DMS 114 small cell lung = system: DMS 114 small cell lung
HCC-2998 colon = system: HCC-2998 colon
MOLT-4 leukemia = system: MOLT-4 leukemia

Measured: TGI

COC1(OC)CC2CCCCC2=C(C)N1S(=O)(=O)c1ccccc1 (centres undefined)
not listed: A498 renal | DMS 114 small cell lung | HCC-2998 colon | MOLT-4 leukemia
> 100 µM: all other assays above

COc1ccc(NC(=O)NS(=O)(=O)c2ccc(C)cc2)nn1
not listed: HCT-116 colon | SR leukemia | RXF 393 renal
> 100 µM: all other assays above

N#CC1C(=O)C(=O)N(c2ccccc2)C1=O (centres undefined)
not listed: A549 NSCLC | CCRF-CEM leukemia | SR leukemia | DLD-1 colon | HL-60(TB) leukemia | MOLT-4 leukemia
> 100 µM: all other assays above
